Laboratory results reported in ChEMBL document CHEMBL1156621, “Synthesis and cellular effects of cycloterpenals: cyclohexadienal-based activators of neurite outgrowth” (2008).
In brackets after ≈: the same amount, converted by molar mass.

Legend:
Format in all cases: functional
Escherichia coli = test: Antibacterial activity against Escherichia coli after 16 hrs
Bacillus subtilis = test: Antibacterial activity against Bacillus subtilis after 16 hrs
Saccharomyces cerevisiae = test: Antifungal activity against Saccharomyces cerevisiae after 16 hrs

Compound	MIC (Escherichia coli) [µg/mL]	MIC (Bacillus subtilis) [µg/mL]	MIC (Saccharomyces cerevisiae) [µg/mL]
CC1=C(/C=C/C(C)=C/C=C/C2=CC=C(C=O)C(c3ccccc3)C2)C(C)(C)CCC1 (configuration not stated)	> 100	> 100	> 100
Cc1ccc(C2=CC=C(C=O)C(C)(C)C2)o1	> 100	> 100	> 100
CN(C)c1ccc(-c2cc(-c3ccc4c(c3)Cc3ccccc3-4)ccc2C=O)cc1	> 100	> 100	> 100
CC(C)=CC[C@@H]1C(C)=CC=C(C=O)[C@H]1c1ccccc1	> 100	> 100	> 100
CC1=CC=C(C=O)C(c2ccc(N(C)C)cc2)C1 (configuration not stated)	> 100	> 100	> 100
CC1=C(/C=C/C(C)=C/C=C/C2=CC=C(C=O)C(c3ccc([N+](=O)[O-])cc3)C2)C(C)(C)CCC1 (configuration not stated)	> 100	> 100	> 100
CC(C)=CCCC1=CC=C(C=O)C(C)(CCC=C(C)C)C1 (configuration not stated)	> 100	> 100	> 100
CC(C)=CC[C@@H]1C(C)=CC=C(C=O)[C@H]1c1ccc(N(C)C)cc1	> 100	> 100	> 100
CC1(c2ccccc2)CC(c2ccccc2)=CC=C1C=O (configuration not stated)	> 100	> 100	> 100
Cc1ccc(C2=CC=C(C=O)C(c3ccccc3)C2)o1 (configuration not stated)	> 100	> 100	> 100
CC1=CC=C(C=O)C(C)(c2ccc(-c3ccccc3)cc2)C1 (configuration not stated)	> 100	> 100	> 100
Cc1ccc(C=O)c(-c2ccccc2)c1	> 100	> 100	> 100
O=CC1=CC=C(c2ccc3ccccc3c2)CC1c1ccccc1 (configuration not stated)	> 100	> 100	> 100
CC(C)=CC[C@H]1C(C)=CC=C(C=O)[C@H]1c1ccc(N(C)C)cc1	> 100	> 100	> 100
CN(C)c1ccc(C2CC(c3ccccc3)=CC=C2C=O)cc1 (configuration not stated)	> 100	> 100	> 100
CC1C(c2cccs2)=CC=C(C=O)C1c1ccc(N(C)C)cc1 (configuration not stated)	> 100	> 100	> 100
CC1=CC=C(C=O)C(c2ccccc2)C1 (configuration not stated)	> 100	> 100	> 100
CC(C)=CCC/C(C)=C/C[C@H]1C(C)=CC=C(C=O)[C@H]1c1ccccc1	> 100	> 100	> 100
CN(C)c1ccc(-c2cc(-c3ccc(-c4ccccc4)cc3)ccc2C=O)cc1	> 100	> 100	> 100
CCCCCCC1=CC=C(C=O)C(C)(CCCCCC)C1 (configuration not stated)	> 100	> 100	> 100
CCC1(c2cccs2)C(C=O)=CC=C(c2cccs2)C1C (configuration not stated)	> 100	> 100	> 100
CC(C)=CC[C@H]1C(C)=CC=C(C=O)[C@H]1c1ccccc1	> 100	> 100	> 100
CC(C)=CCC/C(C)=C/CCC1=CC=C(C=O)C(c2ccccc2)C1 (configuration not stated)	> 100	> 100	> 100
CN(C)c1ccc(-c2cc(-c3ccccc3)ccc2C=O)cc1	> 100	> 100	> 100
O=CC1=CC=C(c2ccc3c(c2)Cc2ccccc2-3)CC1c1ccccc1 (configuration not stated)	> 100	> 100	> 100

Compound	MIC (Escherichia coli) [µg/mL]	MIC (Bacillus subtilis) [µg/mL]	MIC (Saccharomyces cerevisiae) [µg/mL]
CC1(c2ccc3c(c2)Cc2ccccc2-3)CC(c2ccc3c(c2)Cc2ccccc2-3)=CC=C1C=O (configuration not stated)	> 100	> 100	> 100
CC1=C(/C=C/C(C)=C/C=C/c2ccc(C=O)c(-c3ccccc3)c2)C(C)(C)CCC1	> 100	> 100	> 100
CC1=C(/C=C/C(C)=C/C=C/C2=CC=C(C=O)C(c3ccc(N(C)C)cc3)C2)C(C)(C)CCC1 (configuration not stated)	> 100	> 100	> 100
O=CC1=CC=C(c2ccc(-c3ccccc3)cc2)CC1	> 100	> 100	> 100
O=CC1=CC=C(c2ccc(Cl)s2)CC1c1ccccc1 (configuration not stated)	> 100	> 100	> 100
CC1(c2ccc3ccccc3c2)CC(c2ccc3ccccc3c2)=CC=C1C=O (configuration not stated)	> 100	> 100	> 100
CCCCC[C@H]1C(C)=CC=C(C=O)[C@H]1c1ccc(N(C)C)cc1	> 100	> 100	> 100
O=CC1=CC=C(c2cccs2)CC1c1ccc([N+](=O)[O-])cc1 (configuration not stated)	> 100	> 100	> 100
CC(C)=CC[C@H]1C(C)=CC=C(C=O)[C@H]1c1ccc([N+](=O)[O-])cc1	> 100	10 (≈ 32.1 µM)	> 100
CC(C)=CCCC1=CC=C(C=O)C(C)(c2ccc(C)o2)C1 (configuration not stated)	> 100	> 100	> 100
Cc1ccc(C=O)c(-c2ccc([N+](=O)[O-])cc2)c1	> 100	> 100	> 100
CC(C)=CCCc1ccc(C=O)c(-c2ccc([N+](=O)[O-])cc2)c1	> 100	> 100	> 100
Cc1ccc(C2=CC=C(C=O)C(C)(c3ccc(C)o3)C2)o1 (configuration not stated)	> 100	> 100	> 100
O=CC1=CC=C(c2ccc3ccccc3c2)CC1c1ccc([N+](=O)[O-])cc1 (configuration not stated)	> 100	> 100	> 100
Cc1ccc(-c2ccc(C=O)c(-c3ccc([N+](=O)[O-])cc3)c2)o1	> 100	> 100	> 100
O=CC1=CC=C(c2ccc(-c3ccccc3)cc2)CC1c1ccccc1 (configuration not stated)	> 100	> 100	> 100
CC(C)=CCC1CC(C=O)=CC=C1C (configuration not stated)	> 100	> 100	> 100
CC(C)=CCCc1ccc(C=O)c(-c2ccc(N(C)C)cc2)c1	> 100	> 100	> 100
CC1C(c2cccs2)=CC=C(C=O)C1c1ccccc1 (configuration not stated)	> 100	> 100	> 100
CC(C)=CCCC1=CC=C(C=O)C(c2ccc(N(C)C)cc2)C1 (configuration not stated)	> 100	> 100	> 100
O=Cc1ccc(-c2ccccc2)cc1-c1ccc([N+](=O)[O-])cc1	> 100	> 100	> 100
Cc1ccc(C2=CC=C(C=O)C(c3ccc(N(C)C)cc3)C2)o1 (configuration not stated)	> 100	> 100	> 100
O=CC1=CC=C(c2ccccc2)CC1c1ccccc1 (configuration not stated)	> 100	> 100	> 100
CC1=C(/C=C/C2=CC=C(C=O)C(c3ccc(N(C)C)cc3)C2)C(C)(C)CCC1 (configuration not stated)	> 100	> 100	> 100
CN(C)c1ccc(C2CC(c3ccc4c(c3)Cc3ccccc3-4)=CC=C2C=O)cc1 (configuration not stated)	> 100	> 100	> 100

Compound	MIC (Escherichia coli) [µg/mL]	MIC (Bacillus subtilis) [µg/mL]	MIC (Saccharomyces cerevisiae) [µg/mL]
CC1(c2ccc(Cl)s2)CC(c2ccc(Cl)s2)=CC=C1C=O (configuration not stated)	> 100	> 100	> 100
CC1=CC=C(C=O)C(C)(C)C1	> 100	> 100	> 100
CC(C)=CCC/C(C)=C/C[C@H]1C(C)=CC=C(C=O)[C@H]1c1ccc(N(C)C)cc1	> 100	> 100	> 100
CC(C)=CCC/C(C)=C/C[C@H]1C(C)=CC=C(C=O)[C@H]1c1ccc([N+](=O)[O-])cc1	> 100	> 100	> 100
O=CC1=CC=C(c2cccs2)CC1c1ccccc1 (configuration not stated)	> 100	> 100	> 100
CC(C)=CCC/C(C)=C/CCC1=CC=C(C=O)C(C)(CC/C=C(\C)CCC=C(C)C)C1 (configuration not stated)	> 100	> 100	> 100
Cc1ccc(C2=CC=C(C=O)C(c3ccc([N+](=O)[O-])cc3)C2)o1 (configuration not stated)	> 100	> 100	> 100
CC1=C(/C=C/C(C)=C/C=C/C2=CC=C(C=O)C(C)(/C=C/C=C(C)/C=C/C3=C(C)CCCC3(C)C)C2)C(C)(C)CCC1 (configuration not stated)	> 100	> 100	> 100
CN(C)c1ccc(C2CC(c3cccs3)=CC=C2C=O)cc1 (configuration not stated)	> 100	> 100	> 100
CC1C(c2cccs2)=CC=C(C=O)C1c1ccc([N+](=O)[O-])cc1 (configuration not stated)	> 100	> 100	> 100
CC1CC(c2ccc3ccccc3c2)=CC=C1C=O (configuration not stated)	> 100	> 100	> 100
CC(C)=CCCC1=CC=C(C=O)C(C)C1 (configuration not stated)	> 100	> 100	> 100
CC1CC(c2cccs2)=CC=C1C=O (configuration not stated)	> 100	> 100	> 100
CC1CC(c2ccc(-c3ccccc3)cc2)=CC=C1C=O (configuration not stated)	> 100	> 100	> 100
CC1(c2cccs2)CC(c2cccs2)=CC=C1C=O (configuration not stated)	> 100	> 100	> 100
CC1=C(/C=C/C(C)=C/C=C/C2=CC=C(C=O)CC2)C(C)(C)CCC1	> 100	> 100	> 100
CN(C)c1ccc(C2CC(c3ccc(-c4ccccc4)cc3)=CC=C2C=O)cc1 (configuration not stated)	> 100	> 100	> 100
CC1=CC=C(C=O)C(c2ccc([N+](=O)[O-])cc2)C1 (configuration not stated)	> 100	> 100	> 100
CC1(c2cccs2)CC(c2ccc(-c3ccccc3)cc2)=CC=C1C=O (configuration not stated)	> 100	10 (≈ 28.1 µM)	> 100
CC1=C(/C=C/C2=CC=C(C=O)C(c3ccc([N+](=O)[O-])cc3)C2)C(C)(C)CCC1 (configuration not stated)	> 100	> 100	> 100
CC(C)=CCCc1ccc(C=O)c(-c2ccccc2)c1	> 100	> 100	> 100
O=CC1=CC=C(c2ccccc2)CC1c1ccc([N+](=O)[O-])cc1 (configuration not stated)	> 100	> 100	> 100
CC(C)=CCCC1=CC=C(C=O)C(c2ccccc2)C1 (configuration not stated)	> 100	> 100	> 100
CC1(c2ccc(-c3ccccc3)cc2)CC(c2ccc(-c3ccccc3)cc2)=CC=C1C=O (configuration not stated)	> 100	> 100	> 100
